“Also recorded” adds a separate entry of the source. Read-outs that look alike come from different tables or passages of the source.
How the values were obtained:
cell growth = details: cited from earlier work
[1] = tested on: microtubules (taxoid site); assay: Inhibition of [^3H]paclitaxel binding to microtubules; design: species or system Bovine; details: for % inhibition ± SD, radiolabeled ligand [^3H]paclitaxel: 2.0 µM tubulin as microtubules, radiolabeled ligand 4.0 µM, inhibitor 20 µM
[2] = target: microtubules (laulimalide/peloruside A site) (Bos taurus, UniProt Q6B856); assay: Inhibition of [^3H]peloruside A binding to microtubules; design: species or system Bovine; details: for inhibition at 20 µM: read-out: % inhibition ± SD, radiolabeled ligand [^3H]peloruside A; for % inhibition ± SD, radiolabeled ligand [^3H]peloruside A: 2.0 µM tubulin as microtubules, radiolabeled ligand 4.0 µM, inhibitor 20 µM; for type of inhibition of [^3H]peloruside A binding: Hanes analysis; for Ki: read-out: apparent Ki, inhibition of [^3H]peloruside A binding, Dixon analysis, competitive
[3] = target: T1, tubulin polymer (microtubules) (Bos taurus, UniProt Q6B856); assay: Binding of [^3H]paclitaxel to preformed tubulin polymer, Scatchard analysis; design: species or system Bovine
[4] = target: T1, tubulin polymer (microtubules); assay: Binding of [^3H]peloruside A to preformed tubulin polymer, Scatchard analysis; design: species or system Bovine

Sequence of microtubules (laulimalide/peloruside A site) (Q6B856 whole entry): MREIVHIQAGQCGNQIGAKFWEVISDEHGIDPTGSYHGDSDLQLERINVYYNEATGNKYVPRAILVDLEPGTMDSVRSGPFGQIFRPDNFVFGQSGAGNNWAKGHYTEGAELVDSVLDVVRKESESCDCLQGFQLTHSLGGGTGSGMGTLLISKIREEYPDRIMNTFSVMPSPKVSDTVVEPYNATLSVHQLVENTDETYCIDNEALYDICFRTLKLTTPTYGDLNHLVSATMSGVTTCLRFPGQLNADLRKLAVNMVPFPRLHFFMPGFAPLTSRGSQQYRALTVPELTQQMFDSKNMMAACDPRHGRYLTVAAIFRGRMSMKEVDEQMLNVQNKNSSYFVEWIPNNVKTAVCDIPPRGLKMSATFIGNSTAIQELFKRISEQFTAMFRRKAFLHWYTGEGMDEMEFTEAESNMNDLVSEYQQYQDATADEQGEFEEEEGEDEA
Sequence of microtubules (laulimalide/peloruside A site) (P81947 whole entry partner): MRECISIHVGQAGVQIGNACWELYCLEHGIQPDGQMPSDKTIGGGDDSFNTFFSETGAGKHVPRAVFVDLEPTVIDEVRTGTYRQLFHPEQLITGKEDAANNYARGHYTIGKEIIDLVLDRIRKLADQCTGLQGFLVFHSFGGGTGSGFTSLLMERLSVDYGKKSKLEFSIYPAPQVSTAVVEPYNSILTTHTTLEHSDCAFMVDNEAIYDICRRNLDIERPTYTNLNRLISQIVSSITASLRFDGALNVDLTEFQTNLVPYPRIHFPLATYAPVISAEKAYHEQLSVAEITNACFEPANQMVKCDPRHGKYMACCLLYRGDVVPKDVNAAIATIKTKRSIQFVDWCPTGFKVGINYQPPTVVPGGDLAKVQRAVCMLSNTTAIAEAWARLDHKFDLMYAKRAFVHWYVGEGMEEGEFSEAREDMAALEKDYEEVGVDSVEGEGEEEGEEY
T1 sequence (Q6B856 whole entry): as the sequence (Q6B856 whole entry) above
T1 sequence (P81947 whole entry partner): as the sequence (P81947 whole entry partner) above

| Molecule | ability to inhibit [^3H]paclitaxel binding [1] | % inhibition ± SD, radiolabeled ligand [^3H]paclitaxel [1] [%] | ability to inhibit [^3H]peloruside A binding (words) [2] | inhibition at 20 µM [2] [%] | further results |
| --- | --- | --- | --- | --- | --- |
| CC[C@H](/C=C(/C)[C@@H]1C[C@@H](OC)C[C@H](O)C(C)(C)[C@@]2(O)O[C@@H](C[C@@H](O)[C@H](O)C(=O)O1)C[C@@H](OC)[C@H]2O)CO [peloruside B] |  |  |  |  | cytotoxicity relative to peloruside A (cell growth): about three-fold less cytotoxic |
| C/C(=C\c1csc(C)n1)[C@@H]1C[C@@H]2O[C@]2(C)CCC[C@H](C)[C@H](O)[C@@H](C)C(=O)C(C)(C)[C@@H](O)CC(=O)O1 [epothilone B] | strong inhibitors | 79 ± 5 | essentially no ability to inhibit; also recorded: little activity | 2.2 ± 5 |  |
| (11-R)-peloruside A | essentially inactive | 0 ± 8 | inhibitory |  | % inhibition ± SD, radiolabeled ligand [^3H]peloruside A [2]: 49 ± 1%; type of inhibition of [^3H]peloruside A binding [2]: competitive inhibitors; Ki [2]: 9300 nM |
| CC(=O)O[C@H]1C(=O)[C@@]2(C)[C@H]([C@H](OC(=O)c3ccccc3)[C@]3(O)C[C@H](OC(=O)[C@H](O)[C@@H](NC(=O)c4ccccc4)c4ccccc4)C(C)=C1C3(C)C)[C@]1(OC(C)=O)CO[C@@H]1C[C@@H]2O [paclitaxel] |  |  | little activity | 6.8 ± 0.5 | Kd [3]: 240 nM; ability to inhibit [^3H]peloruside A binding (words) ([2]; listed as Paclitaxel): essentially no ability to inhibit |
| C=C1C[C@H](C)C[C@@H]2CC=C[C@@H](C/C=C\C(=O)O[C@H]([C@@H](O)/C=C/[C@@H]3CC(C)=CCO3)C[C@@H]3O[C@H]3[C@@H](O)C1)O2 [laulimalide] | essentially inactive | 1.7 ± 5 | inhibitory; also recorded: potent competitive inhibitor |  | % inhibition ± SD, radiolabeled ligand [^3H]peloruside A [2]: 90 ± 0.1%; type of inhibition of [^3H]peloruside A binding [2]: competitive inhibitor; Ki [2]: 250 nM |
| C=C1C[C@H](C)C[C@@H]2CC=C[C@@H](C/C=C\C(=O)O[C@@H](/C=C/[C@@H]3CC(C)=CCO3)[C@@H](O)C[C@@H]3O[C@H]3[C@@H](O)C1)O2 [compound 13, neolaulimalide] |  |  |  |  | activity in cells and with tubulin relative to laulimalide (cell growth; ref Gollner et al. 41): equivalent to that of laulimalide |
| CC[C@@H](/C=C(/C)[C@H]1C[C@H](OC)C[C@@H](O)C(C)(C)[C@]2(O)O[C@H](C[C@H](OC)[C@@H](O)C(=O)O1)C[C@H](OC)[C@@H]2O)CO [peloruside A] |  | 5.1 ± 6 |  |  | number of binding sites per tubulin αβ-dimer in microtubules [4]: one binding site |
| C=C/C=C\[C@H](C)[C@H](OC(N)=O)[C@@H](C)[C@H](O)[C@@H](C)C/C(C)=C\[C@H](C)[C@@H](O)[C@@H](C)/C=C\[C@@H](O)C[C@@H]1OC(=O)[C@H](C)[C@@H](O)[C@H]1C [discodermolide] | strong inhibitors | 87 ± 2 | essentially no ability to inhibit; also recorded: little activity | 5 ± 2 |  |
